One data set deals with LG-protein adducts. Briefly: IHC for LG-protein adducts in colons of AOM-DSS mice. The class given is in vivo, C57BL/6 mice. To be noted: 1.5 mg/ml EtHOBA. The source says:
The present inventors performed immunohistochemistry (IHC) staining using the single chain antibody (Ab) D11, which specifically binds to L G-protein adducts, and a tissue microarray (TMA) from VUMC that contains colon tissues from patients with ulcerative colitis (UC), and associated precancerous and cancerous lesions. Histopathologic diagnoses were established from clinical case material from surgical resections and confirmed by H&E staining of the TMA. High levels of L G-protein adducts were present in active colitis, dysplasia, and carcinoma compared to normal patients (FIG. 2). On the TMA, 7/9 (78%) high grade dysplasia (HGD) cores and 21/23 (91%) CAC cores were scored positive for L G adducts.
Animals receive an i.p. injection of the carcinogen AOM (12.5 mg/kg) followed by 3 cycles of 4% DSS, each for 4 days, over a total of 56-77 days. To directly determine the role of electrophiles in colon carcinogenesis, the present inventors tested the effect of EtHOBA in C57BL/6 mice in the AOM-DSS model. Mice were given 1.5 mg/ml EtHOBA one day after AOM and continued throughout the experiments, except during the DSS cycles, to avoid mixing. The present inventors assessed electrophiles in colons of mice treated with AOM-DSS, by IHC for electrophile protein adducts. […]

For data set [1], the system named is Mongolian gerbils infected with Hp 7.13. Briefly: Gastric cancer development in Mongolian gerbils infected with Hp 7.13. The class given is in vivo. To be noted: gerbils infected with Hp 7.13, EtSA 0.75% in water. The method, then:
(§1) As discussed further in the Examples, the human gastric epithelial cell line AGS was infected with Hp PMSS1±10 mM EtSA. FVB/N insulin-gastrin (INS-GAS) mice and Mongolian gerbils were infected for 8 wk with Hp PMSS1 and 7.13, respectively; EtSA (0.75% in water) was given to animals beginning one wk post-infection. Lys-LG adducts, a marker of electrophile reactions, and EtSA were quantified by LC/EST/MS/MS. Histology was analyzed on H&E staining. DNA damage was evaluated by pH2AX staining. Hp colonization was quantified by culture. Mucosal immune responses were determined by RNA profiling and by Luminex assay. Mice were imaged using PET/CT with ^18F-FDG (inflammation marker) and ^18F—NaF (tumor marker).

In data set [2] the test system is INS-GAS mice infected with H. pylori. Briefly: H. pylori-induced gastric dysplasia and carcinoma in INS-GAS mice. The format is in vivo. The method, then:
FIGS. 16A, 16B, 16C, 16D, 16E, and 16F show INS-GAS mice (8 per group) were infected or not with H. pylori strain PMS for 8 weeks and then treated with EtSA (7.5 mg/ml) one week after infection. (A) EtSA concentration in gastric tissues; **P<0.01, ****P<0.0001 vs. mice without EtSA. (B) Frequency of diagnoses. IMC, intramucosal carcinoma; LGD, low grade dysplasia; ND, no dysplasia. (C) Quantification of extent of dysplasia and cancer as a percentage of tissue sections. (D) H&E staining of INS-GAS mouse stomach tissues, showing carcinoma in an infected mouse; scale bar, 50 μm. In B and C, *P<0.05, **P<0.01 vs. infected mice.
as §1
The effect of a scavenger of levuglandins and other dicarbonyls was investigated in transgenic INS-GAS mice, which have high circulating gastrin levels and develop atrophic gastritis, and dysplasia and carcinoma with H. pylori infection. Mice were infected with H. pylori, and then EtSA was administered in drinking water, starting 7 days after infection. After 8 weeks, EtSA levels were measured in the gastric tissues of uninfected and infected mice receiving this compound (FIG. 16A). […] There was no dysplasia or carcinoma in uninfected mice (FIG. 16D).

Data set [3] in a line: Tolerability of EtHOBA in control mice (body weight, organs). The format is in vivo. As for the experimental part: FIGS. 3A and 3B show data from C57BL/6 mice were treated or not with various concentrations of EtHOBA. (A) Body weight was assessed every day. (B) After 6 days, mice were euthanized and EtHOBA was measured in the colon. n=5 mice/group.
The present inventors analyzed the effect of various concentrations of EtHOBA and its bioavailability in control mice. […] After 6 days of treatment, EtHOBA concentrations in the colon were analyzed using liquid chromatography electrospray ionization tandem mass spectrometry (LC/EST/MS/MS).

Data set [4] deals with Lysyl-LG adducts in AGS cells. Briefly: Lysyl-LG adducts in AGS cells infected with H. pylori PMSS1. The format is cell-based, human. As for the experimental part:
FIGS. 15A, 15B, and 15C are graphs showing C57BL/6 (A) or INS-GAS mice (B) were infected for 8 weeks with H. pylori PMSS1. Lysyl-LG adducts were measured in the gastric tissues by LC/ESI/MS/MS. *P<0.05. (C) Lysyl-LG adducts concentration was determined in AGS cells infected (plain bars) or not (open bars) with H. pylori PMSS1 for 24 h, in the presence or absence of EtSA. *P<0.05 vs. uninfected cells. § P<0.05 vs. infected cells without EtSA.
[…] FVB/N insulin-gastrin (INS-GAS) mice and Mongolian gerbils were infected for 8 wk with Hp PMSS1 and 7.13, respectively; EtSA (0.75% in water) was given to animals beginning one wk post-infection. Lys-LG adducts, a marker of electrophile reactions, and EtSA were quantified by LC/EST/MS/MS. Histology was analyzed on H&E staining. DNA damage was evaluated by pH2AX staining. Hp colonization was quantified by culture. Mucosal immune responses were determined by RNA profiling and by Luminex assay. Mice were imaged using PET/CT with ^18F-FDG (inflammation marker) and ^18F—NaF (tumor marker).
To further determine whether ethylsalicylamine (EtSA) prevents the formation of bifunctional electrophiles during H. pylori infection, the […] were treated or not with EtSA 30 min prior to the infection.

Where [5] appears, read: H. pylori-infected INS-GAS mice treated with EtSA, 8 weeks, 37.5% without EtSA.

Each structure is given as a SMILES string. Entries after “also recorded” stand apart in the source; their conditions may differ.

As for `CCc1ccc(O)c(CN)c1` [EtHOBA, 5-ethyl-2-hydroxybenzylamine], the “LG-protein adducts (IHC staining)” value in the data set on LG-protein adducts is “marked attenuation”. In addition, in data set [1], the “frequency of gastric cancer development” value was “reduced”. In data set [2] (setting [5]), this compound registered a development of carcinoma of 0% and a development of dysplasia of 14.3%. In data set [2] (Hp-infected INS-GAS mice treated with EtSA, percentage of gastric mucosa), the “extent of dysplasia and carcinoma” value was “significantly attenuated; also recorded: decreases”. Besides, the “frequency of intramucosal carcinoma” value in data set [2] (Hp-infected INS-GAS mice treated with EtSA, 69% without EtSA, p<0.05) is recorded as 28%. Besides, the Body weight result in data set [3] (3.7 mg/ml EtHOBA, control mice, 6 days) is “lost weight on day 1, but did not lose additional weight and did not die”. Moreover, the Body weight result in data set [3] (0.37-1.5 mg/ml EtHOBA, compared to untreated mice) was “no loss of body weight”. Moreover, in data set [3] (1.5 or 3.7 mg/ml EtHOBA), the colon weight/length result is reported as “no change in colon weight/length” and the “macroscopic evidence of organ damage” value is reported as “no macroscopic evidence of organ damage”. Besides, in data set [4] (AGS cells infected with Hp PMSS1 ± 10 mM EtSA), the Lys-LG adduct levels result is on record as “inhibited”. Besides, the lysyl-LG adduct concentration entry in data set [4] (H. pylori-infected AGS cells, 24 h, 10 μM EtSA) is on record as “completely attenuated”.

Values taken from patent US11696903B2, “Compounds and methods for scavenging dicarbonyl electrophiles” (VANDERBILT UNIVERSITY, priority 2019, dated 2023).
